{"source": "patent US11827624B2", "about": "“Covalent immune recruiter compounds for immune cell recognition and associated uses” (McMaster University, priority 2020, dated 2023)", "key": {"[1]": {"system": "monoclonal human anti-DNP antibody (mAb)", "assay": "BLI covalent labeling kinetics assay on IgG Fc capture probes, mAb", "type": "binding", "experimental": "Kinetic assays to characterize the second order rate constant (kinact/KI) describing the CIR+Ab labeling reaction involved incubating increasing concentrations of CIR 3 or CIR 5 with a fixed concentration (75 nM) of anti-DNP mmAb in solution, for different periods of time. PSMA binding to CIR-Ab complexes increases the total mass associated with the probe surface leading to signal increases (nm shift). CIR 3 (500 nM) and 75 nM of either mmAb or mAb (AcroBiosystems Catalog #DNP-M2) was reacted in 1× Kinetics Buffer (ForteBio) for four hours prior to the experiment. IgG Fc capture (ProG) probes from ForteBio were placed in 1× Kinetics Buffer for 20 minutes prior to the experiment for wetting. The experiment was conducted using an Octet Red96 (ForteBio), where the acquisition rate was set to 5 Hz and the temperature was held at 25° C. The plate shaker setting was 1000 RPM. A volume of 250 μL of each solution was loaded onto a black flat-bottom 96-well plate (Grenier). The experiment began by placing the ProG probes in 1×Kinetics Buffer for four minutes to establish a baseline. Next, the probes were placed into the CIR 3 and anti-DNP antibody reaction mixture to load the covalent complex (CIR-Ab) onto the probe. Next, the probes were placed in a solution of 5 mM DNP-glycine competitor in 1×Kinetics Buffer in order to disrupt any non-covalent or non-specific binding. The baseline was re-established by then placing the probes in 1× Kinetics Buffer for 0.5 minutes. To measure PSMA association, the probes were placed in a solution of 500 nM human PSMA protein in 1× Kinetics Buffer for 10 minutes. The probes were then placed in 1×Kinetics Buffer for 10 minutes to measure dissociation. The raw nm shift signal for the association and dissociation step obtained by the Octet Red96 was first baselined to the beginning of the association step (t=0 second) by subtracting the association signal at t=0 from the measured signal at each time point. The Kd was determined by fitting both the association and dissociation curves using the ‘association then dissociation’ binding model in GraphPad Prism 8. The experiment was repeated once for a total of two replicates.\nThe specific labelling of an antibody by a CIR occurs via a two-step mechanism. In the first step, the CIR binds to the antibody via its ABD and forms a reversible complex. […] This second order rate constant was determined by monitoring covalent product (CIR-Ab) formation as a function of time via BLI using IgG Fc capture probes (note: a non-specific labeling reaction occurs independent of binding to the DNP binding site with any biological nucleophile and follows second order kinetics without saturation). […]"}, "[2]": {"system": "HEK PSMA+cells", "assay": "Flow cytometry antibody recruitment to the target cell surface", "type": "cell-based, human", "experimental": "CIR 3 or ARM 11 (640 nM) was incubated with 320 nM antibody (mmAb or mAb) at room temperature overnight. After overnight incubation, a dilution series (1:2, 1:3, 1:3, 1:3) was conducted using each condition stock which was then equilibrated for 90 minutes prior to addition to the assay well plate. HEK293 cells transfected with PSMA, were washed 3× and placed in a flow buffer containing 4% FBS, 0.5 mM EDTA/EGTA, 0.1% Sodium Azide, at a concentration of 2×10^6 Cells/mL. 75 μL of cells were added (150 000 Cells per sample) and kept on ice. 25 μL of antibody+CIR or antibody+ARM conditions prepared above were added to the target cells (experimental antibody concentrations: 80 nM, 40 nM, 13.3 nM, 4.4 nM, 1.5 nM). For the DNP Control, 4.5 mM was added to antibody for 5 minutes, then the CIR/ARM was added, and the solution incubated overnight. […]\nElimination equilibrium of the ARM:antibody through a covalent linkage to CIRs, and its impact on total antibody recruitment to target cells, at different therapeutically relevant antibody concentrations was next evaluated. […] This leads to increases in the mean fluorescence intensity (MFI) of associated cell populations, detectable in flow cytometry.\nAntibody recruitment to the cell surface is proportional to the mean fluorescence intensity (MFI) of cell populations, bound to mmAb antibody complexes comprising CIR 3 or ARM 11. […]"}}, "data": [{"smiles": "O=C(O)CC[C@H](NC(=O)N[C@@H](CCCCNC(=O)NCCOCCOCCOCCOCCOCCOCCOCCOC(=O)n1cnc(CCNC(=O)CNc2ccc([N+](=O)[O-])cc2[N+](=O)[O-])c1)C(=O)O)C(=O)O", "note": "[CIR 3]", "values": [{"measurement": "covalent labeling of anti-DNP mAb", "setting": "[1]; 75 nM mAb, 500 nM CIR 3", "value": "selectively covalently modify mAb albeit with modestly slower kinetics"}, {"measurement": "Kinact/Kl ^c", "setting": "[1]; mAb", "value": "1730 ± 1040", "unit": "M⁻¹ s⁻¹"}, {"measurement": "Kinact^c", "setting": "[1]; mAb, 75 nM antibody", "value": "2.0 × 10^−4 ± 0 s^−1"}, {"measurement": "Ki", "setting": "[1]; mAb, read-out: Kl ^c", "value": "160 ± 70", "unit": "nM"}, {"measurement": "total antibody recruitment to the target cell surface (MFI)", "setting": "[2]; higher antibody concentrations (40-80 nM)", "value": "comparable efficiencies"}, {"measurement": "total antibody recruitment to the target cell surface (MFI)", "setting": "[2]; sub-saturating mAb or mmAb (<40 nM), 37° C.", "value": "more total antibody recruitment to the target cell surface compared to ARM 11"}]}]}
